Reference: PubChem BioAssay (NCI)
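Grown in 96-well plates, cells were treated for 48 hours with each compound at five concentrations. Insufficient inhibition: endpoint recorded as highest concentration tested. At the TGI there is no net growth.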

System: OVCAR-8 ovarian
Experiment: NCI-60 cell line screen, 48 h

| SMILES | TGI [µM] |
| --- | --- |
| O=C(Nc1ccc(Cl)cc1Cl)C(=O)C(C(=O)c1ccncc1)C1OC(=O)c2ccccc21 (stereo not drawn) | > 100 |

System: XF 498 CNS
Experiment: NCI-60 cell line screen, 48 h

| SMILES | TGI [µM] |
| --- | --- |
| c1cc2c(ncc3cscc32)s1 | > 100 |
| CN(C)C(c1ccccc1)C(O)c1ccccc1 (stereo not drawn) | > 100 |
| FC(F)(F)c1nc(-c2ccccc2)oc1Sc1nnc(Sc2oc(-c3ccccc3)nc2C(F)(F)F)s1 | 26.7 |
| O=C(Nc1ccc(Cl)cc1Cl)C(=O)C(C(=O)c1ccncc1)C1OC(=O)c2ccccc21 (stereo not drawn) | > 100 |

System: TK-10 renal
Experiment: NCI-60 cell line screen, 48 h

| SMILES | TGI [µM] |
| --- | --- |
| c1cc2c(ncc3cscc32)s1 | > 100 |
| CN(C)C(c1ccccc1)C(O)c1ccccc1 (stereo not drawn) | > 100 |
| FC(F)(F)c1nc(-c2ccccc2)oc1Sc1nnc(Sc2oc(-c3ccccc3)nc2C(F)(F)F)s1 | > 100 |
| O=C(Nc1ccc(Cl)cc1Cl)C(=O)C(C(=O)c1ccncc1)C1OC(=O)c2ccccc21 (stereo not drawn) | > 100 |

System: SW-620 colon
Experiment: NCI-60 cell line screen, 48 h

| SMILES | TGI [µM] |
| --- | --- |
| c1cc2c(ncc3cscc32)s1 | > 100 |
| CN(C)C(c1ccccc1)C(O)c1ccccc1 (stereo not drawn) | > 100 |
| FC(F)(F)c1nc(-c2ccccc2)oc1Sc1nnc(Sc2oc(-c3ccccc3)nc2C(F)(F)F)s1 | > 100 |
| O=C(Nc1ccc(Cl)cc1Cl)C(=O)C(C(=O)c1ccncc1)C1OC(=O)c2ccccc21 (stereo not drawn) | > 100 |

System: SK-MEL-5 melanoma
Experiment: NCI-60 cell line screen, 48 h

| SMILES | TGI [µM] |
| --- | --- |
| c1cc2c(ncc3cscc32)s1 | > 100 |
| FC(F)(F)c1nc(-c2ccccc2)oc1Sc1nnc(Sc2oc(-c3ccccc3)nc2C(F)(F)F)s1 | 33.9 |
| O=C(Nc1ccc(Cl)cc1Cl)C(=O)C(C(=O)c1ccncc1)C1OC(=O)c2ccccc21 (stereo not drawn) | > 100 |

System: RPMI-8226 leukemia
Experiment: NCI-60 cell line screen, 48 h

| SMILES | TGI [µM] |
| --- | --- |
| c1cc2c(ncc3cscc32)s1 | > 100 |
| CN(C)C(c1ccccc1)C(O)c1ccccc1 (stereo not drawn) | > 100 |
| FC(F)(F)c1nc(-c2ccccc2)oc1Sc1nnc(Sc2oc(-c3ccccc3)nc2C(F)(F)F)s1 | > 74.6 |
| O=C(Nc1ccc(Cl)cc1Cl)C(=O)C(C(=O)c1ccncc1)C1OC(=O)c2ccccc21 (stereo not drawn) | > 100 |

System: M14 melanoma
Experiment: NCI-60 cell line screen, 48 h

| SMILES | TGI [µM] |
| --- | --- |
| c1cc2c(ncc3cscc32)s1 | > 100 |
| CN(C)C(c1ccccc1)C(O)c1ccccc1 (stereo not drawn) | > 100 |
| FC(F)(F)c1nc(-c2ccccc2)oc1Sc1nnc(Sc2oc(-c3ccccc3)nc2C(F)(F)F)s1 | 28 |
| O=C(Nc1ccc(Cl)cc1Cl)C(=O)C(C(=O)c1ccncc1)C1OC(=O)c2ccccc21 (stereo not drawn) | > 100 |

System: CAKI-1 renal
Experiment: NCI-60 cell line screen, 48 h

| SMILES | TGI [µM] |
| --- | --- |
| c1cc2c(ncc3cscc32)s1 | > 100 |
| CN(C)C(c1ccccc1)C(O)c1ccccc1 (stereo not drawn) | > 100 |
| FC(F)(F)c1nc(-c2ccccc2)oc1Sc1nnc(Sc2oc(-c3ccccc3)nc2C(F)(F)F)s1 | > 78.7 |
| O=C(Nc1ccc(Cl)cc1Cl)C(=O)C(C(=O)c1ccncc1)C1OC(=O)c2ccccc21 (stereo not drawn) | > 100 |

System: ACHN renal
Experiment: NCI-60 cell line screen, 48 h

| SMILES | TGI [µM] |
| --- | --- |
| c1cc2c(ncc3cscc32)s1 | > 100 |
| CN(C)C(c1ccccc1)C(O)c1ccccc1 (stereo not drawn) | > 100 |
| FC(F)(F)c1nc(-c2ccccc2)oc1Sc1nnc(Sc2oc(-c3ccccc3)nc2C(F)(F)F)s1 | > 100 |
| O=C(Nc1ccc(Cl)cc1Cl)C(=O)C(C(=O)c1ccncc1)C1OC(=O)c2ccccc21 (stereo not drawn) | > 100 |

System: UACC-62 melanoma
Experiment: NCI-60 cell line screen, 48 h

| SMILES | TGI [µM] |
| --- | --- |
| c1cc2c(ncc3cscc32)s1 | > 31.6 |
| CN(C)C(c1ccccc1)C(O)c1ccccc1 (stereo not drawn) | > 100 |
| FC(F)(F)c1nc(-c2ccccc2)oc1Sc1nnc(Sc2oc(-c3ccccc3)nc2C(F)(F)F)s1 | > 65.8 |
| O=C(Nc1ccc(Cl)cc1Cl)C(=O)C(C(=O)c1ccncc1)C1OC(=O)c2ccccc21 (stereo not drawn) | > 100 |

System: HOP-92 NSCLC
Experiment: NCI-60 cell line screen, 48 h

| SMILES | TGI [µM] |
| --- | --- |
| c1cc2c(ncc3cscc32)s1 | > 100 |
| FC(F)(F)c1nc(-c2ccccc2)oc1Sc1nnc(Sc2oc(-c3ccccc3)nc2C(F)(F)F)s1 | 63.4 |
| O=C(Nc1ccc(Cl)cc1Cl)C(=O)C(C(=O)c1ccncc1)C1OC(=O)c2ccccc21 (stereo not drawn) | > 100 |

System: DLD-1 colon
Experiment: NCI-60 cell line screen, 48 h

| SMILES | TGI [µM] |
| --- | --- |
| c1cc2c(ncc3cscc32)s1 | > 100 |
| CN(C)C(c1ccccc1)C(O)c1ccccc1 (stereo not drawn) | > 100 |
| FC(F)(F)c1nc(-c2ccccc2)oc1Sc1nnc(Sc2oc(-c3ccccc3)nc2C(F)(F)F)s1 | > 100 |
| O=C(Nc1ccc(Cl)cc1Cl)C(=O)C(C(=O)c1ccncc1)C1OC(=O)c2ccccc21 (stereo not drawn) | > 100 |

System: NCI/ADR-RES ovarian
Experiment: NCI-60 cell line screen, 48 h

| SMILES | TGI [µM] |
| --- | --- |
| c1cc2c(ncc3cscc32)s1 | > 100 |

System: UACC-257 melanoma
Experiment: NCI-60 cell line screen, 48 h

| SMILES | TGI [µM] |
| --- | --- |
| c1cc2c(ncc3cscc32)s1 | > 100 |
| CN(C)C(c1ccccc1)C(O)c1ccccc1 (stereo not drawn) | > 100 |
| FC(F)(F)c1nc(-c2ccccc2)oc1Sc1nnc(Sc2oc(-c3ccccc3)nc2C(F)(F)F)s1 | > 100 |
| O=C(Nc1ccc(Cl)cc1Cl)C(=O)C(C(=O)c1ccncc1)C1OC(=O)c2ccccc21 (stereo not drawn) | > 100 |

System: MALME-3M melanoma
Experiment: NCI-60 cell line screen, 48 h

| SMILES | TGI [µM] |
| --- | --- |
| c1cc2c(ncc3cscc32)s1 | > 100 |
| CN(C)C(c1ccccc1)C(O)c1ccccc1 (stereo not drawn) | > 100 |
| FC(F)(F)c1nc(-c2ccccc2)oc1Sc1nnc(Sc2oc(-c3ccccc3)nc2C(F)(F)F)s1 | 34.4 |
| O=C(Nc1ccc(Cl)cc1Cl)C(=O)C(C(=O)c1ccncc1)C1OC(=O)c2ccccc21 (stereo not drawn) | > 100 |

System: DU-145 prostate
Experiment: NCI-60 cell line screen, 48 h

| SMILES | TGI [µM] |
| --- | --- |
| c1cc2c(ncc3cscc32)s1 | > 100 |

System: OVCAR-3 ovarian
Experiment: NCI-60 cell line screen, 48 h

| SMILES | TGI [µM] |
| --- | --- |
| c1cc2c(ncc3cscc32)s1 | > 100 |
| CN(C)C(c1ccccc1)C(O)c1ccccc1 (stereo not drawn) | > 100 |
| FC(F)(F)c1nc(-c2ccccc2)oc1Sc1nnc(Sc2oc(-c3ccccc3)nc2C(F)(F)F)s1 | > 57.7 |
| O=C(Nc1ccc(Cl)cc1Cl)C(=O)C(C(=O)c1ccncc1)C1OC(=O)c2ccccc21 (stereo not drawn) | > 100 |

System: A549 NSCLC
Experiment: NCI-60 cell line screen, 48 h

| SMILES | TGI [µM] |
| --- | --- |
| c1cc2c(ncc3cscc32)s1 | > 100 |
